Test results taken from US6329378A, “Hydrazone, hydrazine and thiosemicarbazone derivatives as antifungal agents” (Anadys Pharmaceuticals, Inc., priority 2000, dated 2001).
Values after ≈ are worked out from the molar mass of the structure shown.

Experiments:
C. albicans [1] = assay: MIC, broth microdilution (NCCLS M27-A), C. albicans; type: cell-based, Candida albicans; settings: 48 hours, C. albicans ATCC 10231; for MIC C. albicans: 35° C.; for MIC: Candida albicans, ATCC10231, 35° C.
Procedure: (§1) Compounds of the invention were tested for antifungal susceptibility using broth microdilution assay established by the National Committee for Clinical Laboratory Standards, in NCCLS Document M27-A, which is hereby incorporated by reference. Minimum inhibitory concentrations (MICs) and minimum fungicidal concentrations (MFCs) were measured.
(§2) Yeasts (Saccharomyces cerevisiae and Candida albicans) are cultured on SDA plates in a 35° C. incubator. Strains on SDA plates are stored at 4° C. and used as working stock cultures.
(§3) Inoculum for susceptibility testing is prepared from fresh 24 hour cultures. 5-10 colonies are scraped from the plate and suspended in three milliliters of sterile 0.85% saline (8.5 g/liter NaCl). The cell density of the solution is determined by measuring the absorbance in a spectrophotometer (Shimadzu UV-1201S UV-VIS Spectrophotometer) set at 600 nm. An absorbance value between 0.1 and 0.4 is required for an accurate reading.
(§4) For Candida albicans strains ATCC 10231, 1.0 OD600 unit is approximately 10^7 cells per ml. For Saccharomyces cerevisiae strain CTY552, 1.0 OD600 unit is slightly less than 10^7 cells per ml. Cell suspensions are diluted with the appropriate medium (typically RPMI-1640) to OD600 =0.0003 for Candida and OD600 =0.0004 for Saccharomyces. The diluted suspension contains approximately 3×10^3 cells per ml (this is a 2×concentration inoculum). Two 100 μl aliquots of this dilution are spread on SDA plates and incubated at 35° C. for 1-2 days to determine the precise number of colony forming units. An acceptable range for the inoculum (2×) is 1-5×10^3 cfu/ml (100-500 for 100 μl). Following two-fold dilution of the inoculum with compound, the final concentration of cells will be 0.5-2.5×10^3 per ml. The inoculum is kept at 4° C. and used within a few hours.
(§5) Stock solutions and concentrations tested will vary from compound to compound. In general, though, stock solutions of 12.8 mg/ml in DMSO (Sigma D-8779) are prepared. This will allow for a 128 μg/ml starting test concentration containing 1% DMSO. Stock solutions are stored at -20° C. and dilutions for antifungal testing are freshly prepared before each assay.
(§6) Stock solutions of Amphotericin B and Itraconazole are prepared at 1.6 mg/ml in DMSO. Amphotericin B is sold as a powder that is approximately 80% Amphotericin B. Stock solutions are made accordingly (2.0 mg of powder for a 1 ml solution of 1.6 mg/ml Amphotericin B).
(§7) Both of these (control and test compounds) represent 1:50 dilutions. For an assay with three fungal strains, 40 microliters of a stock solution are diluted to 2.0 ml with room temperature medium.
(§8) Antifungal susceptibility tests are setup in polystyrene, 96-well, flat bottom plates (Costar 9017). To every well in columns 2-12 is added 100 microliters of media. An electronic multichannel (12) pipettor with no tip on channel one is used. To every well in column one is added 200 microliters of diluted compound (32 μg/ml for Amphotericin B and Itraconazole controls, 256 μg/ml for test compounds, 100-fold dilution for natural product extracts). A manual multichannel (8) pipettor is then used to set up a series of 2-fold dilutions. 100 microliters is removed from each well of column one and mixed with 100 microliters in column 2. This is done successively (column two to column three etc.) to produce a set of 11 serial dilutions (column 12 is a drug free control).
(§9) To every well in two rows, 100 μl of inoculum (2×) of a single strain is added. To the final two rows on the plate (G & H), only media is added. Addition of inoculum is best accomplished using an electronic multichannel (12) pipettor. This setup (see below) creates a starting cell density of […] (100-500 per well) and drug concentration ranging from 16 μg/ml to […] for controls (Amphotericin B and Itraconazole), 128 μg/ml to 0.125 μg/ml for pure test compounds, and 200 to 204, 800-fold dilutions for natural product extracts.

S. serevisiae = assay: MIC, broth microdilution (NCCLS M27-A), S. cerevisiae; type: cell-based, Saccharomyces cerevisiae; settings: for MIC S. serevisiae: broth microdilution, 35° C., 48 hours, S. cerevisiae CTY552; for MIC: Saccharomyces cerevisiae, 48 h, read-out: MIC S. serevisiae
Procedure: as §1, §2, §3, §4, §5, §6
(§10) Stock solutions of control compounds (1.6 mg/ml, Amphotericin B or Itraconazole) are initially diluted in medium to a concentration of 32 μg/ml while stock solutions of test compounds (typically 12.8 mg/ml) are diluted to 256 μg/ml. Both of these (control and test compounds) represent 1:50 dilutions. For an assay with three fungal strains, 40 microliters of a stock solution are diluted to 2.0 ml with room temperature medium.
as §8
(§11) To every well in two rows, 100 μl of inoculum (2×) of a single strain is added. To the final two rows on the plate (G & H), only media is added. Addition of inoculum is best accomplished using an electronic multichannel (12) pipettor. […]

A. Nidulans = assay: MIC, broth microdilution (NCCLS M27-A), A. nidulans; type: cell-based; settings: 35° C., 48 hours; for MIC: Aspergillus nidulans
Procedure: as §1
Filamentous fungi (Aspergillus spp.) is cultured on PDA plates in a 35° C. incubator. Inoculum of Aspergillus for susceptibility testing is prepared from plates incubated at 35° C. for 5 days. Colonies are covered with 5 ml of sterile 0.85% saline (8.5 g/liter NaCl) and gently rocked for 10-15 minutes. To dislodge the conidia, an automatic pipettor is used to gently wash over the colonies. The saline solution is removed from the plate and the heavy particles are allowed to settle for 3-5 minutes. The upper suspension is removed and vortexed for 15 sec. The turbidity of the solution is determined by measuring the absorbance in a spectrophotometer (Shimadzu UV-1201S UV-VIS Spectrophotometer) set at 600 nm. An absorbance value between 0.1 and 0.4 is required for an accurate reading.
The cell suspension is diluted with the appropriate medium (typically RPMI-1640) to OD600 =0.0004. The final suspension should contain approximately 3×10^3 cfu per ml (this is a 2×concentrationinoculum). Two 100 μl aliquots of this dilution are spread on SDA plates and incubated at 35° C. for 1-2 days to determine the precise number of colony forming units. An acceptable range for the inoculum (2×) is 1-5×10^3 cfu/ml (100-500 for 100 μl). Following two-fold dilution of the inoculum with compound, the final concentration of cells will be 0.5-2.5×10^3 per ml. The inoculum is kept at 4° C. and used within a few hours.
as §5, §6, §7, §8, §9

C. albicans [2] = assay: Minimum fungicidal concentration (MFC), C. albicans; type: cell-based, Candida albicans; settings: viability on SDA plate, 35° C.; for MFC: Candida albicans
Procedure: as §1, §2, §3, §4, §5, §6, §10, §8, §11

Row | Compound | MIC C. albicans (C. albicans [1]) [µg/mL] | MIC S. serevisiae (S. serevisiae) [µg/mL] | MIC A. Nidulans (A. Nidulans) [µg/mL] | MFC C. albicans (C. albicans [2]) [µg/mL] | MIC (C. albicans [1]) [µg/mL] | MIC (S. serevisiae) [µg/mL] | MIC (A. Nidulans) [µg/mL] | MFC (C. albicans [2]) [µg/mL]
1 | 3,5-dichloro-2-hydroxybenzaldehyde-N-(3-chloro-2-pyrazinyl)hydrazine [(16)] | 8 | 8 | 128 | > 128 | – | – | – | –
2 | COc1nccnc1N/N=C/c1cc(Cl)cc(Cl)c1O [(1), 3,5-dichloro-2-hydroxybenzaldehyde-N-(3-methoxy-2-pyrazinyl)hydrazone] | – | – | – | – | 1 (≈ 3.19 µM) | 1 (≈ 3.19 µM) | 2 (≈ 6.39 µM) | > 128
3 | COc1nccnc1NN=Cc1cc(Cl)ccc1O [(2)] | – | – | – | – | 1 (≈ 3.59 µM) | 1 (≈ 3.59 µM) | 2 (≈ 7.18 µM) | > 128
4 | COc1nccnc1NN=Cc1cccc(F)c1O [(3)] | – | – | – | – | 0.5 (≈ 1.91 µM) | 1 (≈ 3.81 µM) | 2 (≈ 7.63 µM) | > 128
5 | COc1nccnc1NN=Cc1ccccc1O [(4)] | – | – | – | – | 1 (≈ 4.09 µM) | 1 (≈ 4.09 µM) | 2 (≈ 8.19 µM) | > 128
6 | COc1nccnc1N/N=C/c1ccccn1 [(10)] | – | – | – | – | 2 (≈ 8.72 µM) | 1 (≈ 4.36 µM) | 2 (≈ 8.72 µM) | > 128
7 | CCOc1cccc(C=NNc2nccnc2OC)c1O [(11), 3-ethoxy-2-hydroxybenzaldehyde-N-(3-methoxy-2-pyrazinyl)hydrazone] | – | – | – | – | 2 (≈ 6.94 µM) | 1 (≈ 3.47 µM) | 2 (≈ 6.94 µM) | > 128
8 | COc1nccnc1NN=Cc1cccc([N+](=O)[O-])c1O [(12), 2-hydroxy-3-nitrobenzaldehyde-N-(3-methoxy-2-pyrazinyl)hydrazone] | – | – | – | – | 4 (≈ 13.8 µM) | 4 (≈ 13.8 µM) | 8 (≈ 27.7 µM) | > 128
9 | COc1ccc(C=NNc2nccnc2OC)c(O)c1 [(13), 2-hydroxy-4-methoxybenzaldehyde-N-(3-methoxy-2-pyrazinyl)hydrazone] | – | – | – | – | 1 (≈ 3.65 µM) | 0.5 (≈ 1.82 µM) | 4 (≈ 14.6 µM) | > 128
10 | COc1cc(Br)cc(C=NNc2nccnc2OC)c1O [(14), 5-bromo-2-hydroxy-3-methoxybenzaldehyde-N-(3-methoxy-2-pyrazinyl)hydrazone] | – | – | – | – | 0.5 (≈ 1.42 µM) | 0.5 (≈ 1.42 µM) | 1 (≈ 2.83 µM) | > 128
11 | COc1ccc(Br)c(C=NNc2nccnc2OC)c1O [(15), 6-bromo-2-hydroxy-3-methoxybenzaldehyde-N-(3-methoxy-2-pyrazinyl)hydrazone] | – | – | – | – | 1 (≈ 2.83 µM) | 1 (≈ 2.83 µM) | 8 (≈ 22.7 µM) | > 128
12 | Oc1c(Cl)cc(Cl)cc1/C=N/NC(=S)Nc1cc(C(F)(F)F)cc(C(F)(F)F)c1 [(35), N-[3,5bis(trifluoromethyl)phenyl]-2-[(E)-(3,5-dichloro-2-hydroxyphenyl)methylidene]-1-hydrazonecarbothioamide] | – | – | – | – | 2 (≈ 4.2 µM) | 2 (≈ 4.2 µM) | 4 (≈ 8.4 µM) | > 128
13 | Oc1cc(OCc2ccccc2)ccc1/C=N/NC(=S)Nc1cccc(C(F)(F)F)c1 [(42)] | – | – | – | – | 0.25 (≈ 0.561 µM) | 0.25 (≈ 0.561 µM) | 0.25 (≈ 0.561 µM) | > 128
14 | O=C(O)c1ccc(COc2ccc(/C=N/NC(=S)Nc3ccc(Cl)cc3)c(O)c2)cc1 [(47), N-[(4-chloro-phenyl)]-2-[(E)-(4-carboxyl-benzyloxy-2-hydroxyphenyl)methylidene]-1-hydrazonecarbothiamide] | – | – | – | – | 2 (≈ 4.39 µM) | 1 (≈ 2.19 µM) | 0.5 (≈ 1.1 µM) | –
15 | CCN(CC)c1ccc(/C=N/NC(=S)Nc2cccc(C(F)(F)F)c2)c(O)c1 [(48)] | – | – | – | – | 1 (≈ 2.44 µM) | 0.5 (≈ 1.22 µM) | 0.5 (≈ 1.22 µM) | > 128
16 | Oc1cc(N2CCOCC2)ccc1/C=N/NC(=S)Nc1cccc(C(F)(F)F)c1 [(49)] | – | – | – | – | 2 (≈ 4.71 µM) | 1 (≈ 2.36 µM) | 0.5 (≈ 1.18 µM) | > 128
17 | Cc1cc(C)cc(NC(=S)N/N=C/c2ccc(OCc3ccccc3)cc2O)c1 [(50)] | 1 (≈ 2.47 µM) | 0.5 (≈ 1.23 µM) | 0.5 (≈ 1.23 µM) | – | – | – | – | –
18 | O=S(=O)(c1ccc(NC(=S)N/N=C/c2ccc(OCc3ccccc3)cc2O)cc1)N1CCCCC1 [(51)] | 16 (≈ 30.5 µM) | 0.5 (≈ 0.953 µM) | 1 (≈ 1.91 µM) | – | – | – | – | –
19 | N-[(3-trifluoromethyl)phenyl)]-2-[(E)-(4-allyl-phenyl)-benzyloxy-2-hydroxyphenyl)methylidene]-1-hydrazonecarbothiamide [(44)] | 8 | 2 | 2 | – | – | – | – | –
